Assay results as given in article PMC11259170, “Small-molecule probe for IBD risk variant GPR65 I231L alters cytokine signaling networks through positive allosteric modulation” (Science Advances, 2024).
≈ marks a conversion by molar mass, not a printed value.

Legend:
[1] = system: WT HeLa cells expressing hGPR65; assay: Cytotoxicity assay (CellTiter-Glo, 72 hours); type: cell-based, human
Method: WT HeLa cells expressing hGPR65 were seeded at 2000 cells per well in 384-well plates. Compounds were tested in 10-point dose, starting at 50 μM. Cells were incubated with compounds for 72 hours at 37°C, 5% CO2. Cytotoxicity was measured using CellTiter-Glo Luminescent Cell Viability Assay (Promega, G7572) according to the manufacturer’s protocol. Luminescence measurements were made on BMG Labtech PHERAstar FSX. Data analysis was performed using GraphPad Prism.

[2] = system: human monocyte-derived dendritic cells (MDDCs); assay: Cytokine (TNF) production in human MDDCs, ELISA; type: cell-based; details: LPS 100 ng/ml, 3 hours
Method: Human blood samples were collected from healthy donors at the Blood Donor Center at Massachusetts General Hospital in compliance with all relevant ethical regulations and according to protocol 2018P001504 approved by the Mass General Brigham Institutional Review Board. Donors provided informed written consent. Human PBMCs were isolated by density gradient separation using Ficoll-Paque PLUS (VWR- GE Life Sciences, catalog no. 17144002), as previously described ([54]). Isolated PBMCs were incubated overnight in DMEM (10% FBS, 0.2% sodium bicarbonate, 1X Glutamax) at 37°C, 5% CO2. Human monocytes were isolated from an unpurified Buffy Coat using RosetteSep human monocyte enrichment cocktail (StemCell Technologies, 15068) and frozen same day in FBS with 10% DMSO. […]
Frozen human monocytes were thawed and allowed to recover overnight in DMEM [10% FBS, 1% p/s, IL-4 (50 ng/ml; Peprotech, 200-04), and GM-CSF (50 ng/ml; Peprotech, 300-03)] at 37°C and 5% CO2. […] Supernatants were collected and TNF production was measured by ELISA (Invitrogen, 88-7346-88). Plates were read on BMG Labtech PHERAstar FSX. […]

[3] = Solubility in phosphate buffer; type: physicochemical; details: read-out: solubility in phosphate buffer

## Cc1ccc(NC(=O)c2cnn3c(O)cc(-c4ccc(COC(C)C)cc4)nc23)nc1 [BRD5075, O=C(NC1=NC=C(C)C=C1)C2=C3N(N=C2)C(O)=CC(C4=CC=C(COC(C)C)C=C4)=N3]
[1]; 50 μM, 72 hours
  cell viability: slight decrease in cell viability
[1]; 72-hour incubation, 0-50 μM
  cytotoxicity: not cytotoxic
[2]; 5 μM
  TNF secretion: did not reach statistical significance
[2]; 20 μM
  TNF secretion: further TNF suppression
[3]
  solubility: 116 µM (≈ 48.4 µg/mL)
